Measured values from patent publication US9409884B2 (Rigel Pharmaceuticals, Inc., priority 2012, dated 2016).
pEC50: −log10 of the molar value.

The molecules below were run against AMPK (assay: AMPK activation, enzyme-linked immunosorbent assay). Conditions: Table 13, compounds of Table 6.
Format: biochemical
Method in brief: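 Read-out: ELISA, used to detect compound-driven activation of AMPK.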

pEC50, > 7.00:
COc1ccc(CN2CCC(NC(=O)c3cc4cc(C(=O)N5CCN(Cc6ccc(S(=O)(=O)C7CC7)cc6)CC5)ccc4o3)CC2)cc1F [Compound 6-131, 5-(4-(4-(cyclopropylsulfonyl)benzyl)piperazine-1-carbonyl)-N-(1-(3-fluoro-4-methoxybenzyl)piperidin-4-yl)benzofuran-2-carboxamide]
COc1ccc(CN2CCC(NC(=O)c3cc4cc(C(=O)N5CCN(Cc6ccc(S(C)(=O)=O)c(C(F)(F)F)c6)CC5)ccc4o3)CC2)cc1F [Compound 6-132, N-(1-(3-fluoro-4-methoxybenzyl)piperidin-4-yl)-5-(4-(4-(methylsulfonyl)-3-(trifluoromethyl)benzyl)piperazine-1-carbonyl) benzofuran-2-carboxamide]
COc1ccc(CN2CCC(NC(=O)c3cc4cc(C(=O)N5CCN(Cc6ccc(S(C)(=O)=O)c(Cl)c6)CC5)ccc4o3)CC2)cc1F [Compound 6-133, 5-(4-(3-chloro-4-(methylsulfonyl)benzyl)piperazine-1-carbonyl)-N-(1-(3-fluoro-4-methoxybenzyl)piperidin-4-yl)benzofuran-2-carboxamide]
COc1ccc(CN2CCC(NC(=O)c3cc4cc(C(=O)N5CCN(Cc6ccc(S(=O)(=O)C(F)(F)F)cc6)CC5)ccc4o3)CC2)cc1F [Compound 6-134, N-(1-(3-fluoro-4-methoxybenzyl)piperidin-4-yl)-5-(4-(4-(trifluoromethylsulfonyl)benzyl)piperazine-1-carbonyl)benzofuran-2-carboxamide]
CS(=O)(=O)c1ccc(OC2CCN(C(=O)c3ccc4oc(C(=O)NC5CCN(Cc6ccc(OC(F)(F)F)cc6)CC5)cc4c3)CC2)cc1 [Compound 6-135, 5-(4-(4-(methylsulfonyl)phenoxy)piperidine-1-carbonyl)-N-(1-(4-(trifluoromethoxy)benzyl)piperidin-4-yl)benzofuran-2-carboxamide]
O=C(NC1CCN(Cc2ccc(OC(F)(F)F)cc2)CC1)c1cc2cc(C(=O)N3CCC(Oc4ccc(S(=O)(=O)C(F)(F)F)cc4)CC3)ccc2o1 [Compound 6-136, N-(1-(4-(trifluoromethoxy)benzyl)piperidin-4-yl)-5-(4-(4-(trifluoromethylsulfonyl)phenoxy)piperidine-1-carbonyl)benzofuran-2-carboxamide]
COc1ccc(CN2CCC(NC(=O)c3cc4cc(C(=O)N5CCC(Oc6ccc(S(=O)(=O)C(F)(F)F)cc6)CC5)ccc4o3)CC2)cc1F [Compound 6-137, N-(1-(3-fluoro-4-methoxybenzyl)piperidin-4-yl)-5-(4-(4-(trifluoromethylsulfonyl)phenoxy)piperidine-1-carbonyl)benzofuran-2-carboxamide]
CS(=O)(=O)c1ccc(CN2CCN(C(=O)c3ccc4oc(C(=O)NC5CCN(Cc6ccc(OC(F)(F)F)c(F)c6)CC5)cc4c3)CC2)cc1 [Compound 6-138, N-(1-(3-fluoro-4-(trifluoromethoxy)benzyl)piperidin-4-yl)-5-(4-(4-(methylsulfonyl)benzyl)piperazine-1-carbonyl) benzofuran-2-carboxamide]
O=C(NC1CCN(Cc2ccc(OC(F)(F)F)c(F)c2)CC1)c1cc2cc(C(=O)N3CCN(c4cccc(C(F)(F)F)c4)CC3)ccc2o1 [Compound 6-139, N-(1-(3-fluoro-4-(trifluoromethoxy)benzyl)piperidin-4-yl)-5-(4-(3-(trifluoromethyl)phenyl)piperazine-1-carbonyl) benzofuran-2-carboxamide]
O=C(NC1CCN(Cc2ccc(OC(F)(F)F)cc2)CC1)c1cc2cc(C(=O)N3CCN(c4cccc(C(F)(F)F)c4)CC3)ccc2o1 [Compound 6-140, N-(1-(4-(trifluoromethoxy)benzyl)piperidin-4-yl)-5-(4-(3-(trifluoromethyl)phenyl)piperazine-1-carbonyl) benzofuran-2-carboxamide]
COc1ccc(CN2CCC(NC(=O)c3cc4cc(C(=O)N5CCN(Cc6cccc(S(C)(=O)=O)c6)CC5)ccc4o3)CC2)cc1F [Compound 6-141, N-(1-(3-fluoro-4-methoxybenzyl)piperidin-4-yl)-5-(4-(3-(methylsulfonyl)benzyl)piperazine-1-carbonyl) benzofuran-2-carboxamide]
COc1ccc(CN2CCC(NC(=O)c3cc4cc(C(=O)N5CCN(Cc6cccc(S(C)(=O)=O)c6)CC5)ccc4n3C)CC2)cc1F [Compound 6-142, N-(1-(3-fluoro-4-methoxybenzyl)piperidin-4-yl)-1-methyl-5-(4-(3-(methylsulfonyl)benzyl)piperazine-1-carbonyl)-1H-indole-2-carboxamide]
COc1ccc(CN2CCC(NC(=O)c3cc4cc(C(=O)N5CCN(Cc6ccc(Br)c(S(C)(=O)=O)c6)CC5)ccc4o3)CC2)cc1F [Compound 6-143, 5-(4-(4-bromo-3-(methylsulfonyl)benzyl)piperazine-1-carbonyl)-N-(1-(3-fluoro-4-methoxybenzyl)piperidin-4-yl)benzofuran-2-carboxamide]
CS(=O)(=O)c1ccc(CN2CCN(C(=O)c3ccc4oc(C(=O)NC5CCN(Cc6ccc(C(F)(F)F)cc6)CC5)cc4c3)CC2)cc1 [Compound 6-144, 5-(4-(4-(methylsulfonyl)benzyl)piperazine-1-carbonyl)-N-(1-(4-(trifluoromethyl)benzyl)piperidin-4-yl)benzofuran-2-carboxamide]
CS(=O)(=O)c1ccc(CN2CCN(C(=O)c3ccc4oc(C(=O)NC5CCN(Cc6ccc(C#N)c(F)c6)CC5)cc4c3)CC2)cc1 [Compound 6-145, N-(1-(4-cyano-3-fluorobenzyl)piperidin-4-yl)-5-(4-(4-(methylsulfonyl)benzyl)piperazine-1-carbonyl) benzofuran-2-carboxamide]
CS(=O)(=O)c1ccc(CN2CCN(C(=O)c3ccc4oc(C(=O)NC5CCN(Cc6cccc(OC(F)(F)F)c6)CC5)cc4c3)CC2)cc1 [Compound 6-146, 5-(4-(4-(methylsulfonyl)benzyl)piperazine-1-carbonyl)-N-(1-(3-(trifluoromethoxy)benzyl)piperidin-4-yl)benzofuran-2-carboxamide]
CS(=O)(=O)c1ccc(CN2CCN(C(=O)c3ccc4oc(C(=O)NC5CCN(Cc6cccc(C(F)(F)F)c6)CC5)cc4c3)CC2)cc1 [Compound 6-147, 5-(4-(4-(methylsulfonyl)benzyl)piperazine-1-carbonyl)-N-(1-(3-(trifluoromethyl)benzyl)piperidin-4-yl)benzofuran-2-carboxamide]
CS(=O)(=O)c1ccc(CN2CCN(C(=O)c3ccc4oc(C(=O)NC5CCN(Cc6ccc(-n7cccn7)cc6)CC5)cc4c3)CC2)cc1 [Compound 6-148, N-(1-(4-(1H-pyrazol-1-yl)benzyl)piperidin-4-yl)-5-(4-(4-(methylsulfonyl)benzyl)piperazine-1-carbonyl) benzofuran-2-carboxamide]
CS(=O)(=O)c1cccc(CN2CCN(C(=O)c3ccc4oc(C(=O)NC5CCN(Cc6ccc(C(F)(F)F)cc6)CC5)cc4c3)CC2)c1 [Compound 6-149, 5-(4-(3-(methylsulfonyl)benzyl)piperazine-1-carbonyl)-N-(1-(4-(trifluoromethyl)benzyl)piperidin-4-yl)benzofuran-2-carboxamide]
CS(=O)(=O)c1cccc(CN2CCN(C(=O)c3ccc4oc(C(=O)NC5CCN(Cc6ccc(C#N)c(F)c6)CC5)cc4c3)CC2)c1 [Compound 6-150, N-(1-(4-cyano-3-fluorobenzyl)piperidin-4-yl)-5-(4-(3-(methylsulfonyl)benzyl)piperazine-1-carbonyl) benzofuran-2-carboxamide]
CS(=O)(=O)c1cccc(CN2CCN(C(=O)c3ccc4oc(C(=O)NC5CCN(Cc6cccc(OC(F)(F)F)c6)CC5)cc4c3)CC2)c1 [Compound 6-151, 5-(4-(3-(methylsulfonyl)benzyl)piperazine-1-carbonyl)-N-(1-(3-(trifluoromethoxy)benzyl)piperidin-4-yl)benzofuran-2-carboxamide]
CS(=O)(=O)c1cccc(CN2CCN(C(=O)c3ccc4oc(C(=O)NC5CCN(Cc6ccc(-n7cccn7)cc6)CC5)cc4c3)CC2)c1 [Compound 6-153, N-(1-(4-(1H-pyrazol-1-yl)benzyl)piperidin-4-yl)-5-(4-(3-(methylsulfonyl)benzyl)piperazine-1-carbonyl) benzofuran-2-carboxamide]
COc1ccc(CN2CCC(NC(=O)c3cc4cc(C(=O)N5CCN(Cc6ccc(S(C)(=O)=O)cc6)CC5)ccc4o3)CC2)cc1F [Compound 6-154, N-(1-(3-fluoro-4-methoxybenzyl)piperidin-4-yl)-5-(4-(4-(methylsulfonyl)benzyl)piperazine-1-carbonyl) benzofuran-2-carboxamide]
CS(=O)(=O)c1ccc(OC2CCN(C(=O)c3ccc4oc(C(=O)N[C@@H]5CCN(Cc6ccc(OC(F)(F)F)cc6)C[C@H]5F)cc4c3)CC2)cc1 [Compound 6-155, N-((3,4-trans)-3-fluoro-1-(4-(trifluoromethoxy)benzyl)piperidin-4-yl)-5-(4-(4-(methylsulfonyl)phenoxy)piperidine-1-carbonyl) benzofuran-2-carboxamide]
CS(=O)(=O)c1ccc(CN2CCN(C(=O)c3ccc4oc(C(=O)NC5CCN(Cc6ccc(OC(F)(F)C(F)F)cc6)CC5)cc4c3)CC2)cc1 [Compound 6-156, 5-(4-(4-(methylsulfonyl)benzyl)piperazine-1-carbonyl)-N-(1-(4-(1,1,2,2-tetrafluoroethoxy)benzyl)piperidin-4-yl)benzofuran-2-carboxamide]
CS(=O)(=O)c1ccc(CN2CCN(C(=O)c3ccc4oc(C(=O)NC5CCN(Cc6cccc(OC(F)(F)C(F)F)c6)CC5)cc4c3)CC2)cc1 [Compound 6-157, 5-(4-(4-(methylsulfonyl)benzyl)piperazine-1-carbonyl)-N-(1-(3-(1,1,2,2-tetrafluoroethoxy)benzyl)piperidin-4-yl)benzofuran-2-carboxamide]
